Data reported in the NIST ThermoML archive (doi:10.1021/je400218d).
± gives the expanded uncertainty stated by the source.

Conditions: 298.15 K; 101.33 kPa; Crystal; Pycnometric method

- molar volume: 0.000268 ± 1.6e-05 m3/mol
SMILES: CC1=C(C(=O)O)N2C(=O)[C@@H](NC(=O)[C@H](N)C3=CCC=CC3)[C@H]2SC1 [Cefradin]
